{
  "source": "paper PMC3543460",
  "about": "“Structure-Activity Relationships of the Antimicrobial Peptide Arasin 1 — And Mode of Action Studies of the N-Terminal, Proline-Rich Region” (PLoS ONE, 2013)",
  "key": {"[1]": {"tested_on": "E. coli ATCC 25922", "assay_type": "cell-based, Escherichia coli", "conditions": "ATCC 25922, 24 h", "description": "(§1) Escherichia coli (ATCC 25922), E. coli HB101, Pseudomonas aeruginosa (ATCC 27853), Staphylococcus aureus (ATCC 9144) and Corynebacterium glutamicum (ATCC 13032) were grown at 37°C in Mueller Hinton agar (MH; Difco Laboratories, Detroit, USA). The yeasts Candida albicans (ATCC 10231) and Saccharomyces cerevisiae spp and the mold Botrytis cinerea 101 [33] were cultivated on potato dextrose agar supplemented with 2% glucose at room temperature (RT).\n(§2) Determination of the MIC against bacteria was performed by continuous monitoring of bacterial growth using a Bioscreen C microbiology reader (Labsystems Oy, Helsinki, Finland). The synthetic peptides were tested for antibacterial and antifungal activity at final concentrations (prepared from serial two-fold dilutions) ranging from 0.2 µM to 100 µM. The test was performed in 100-well flat-bottomed honeycomb plates, in which 50 µl peptide solution was incubated with 50 µl of a suspension of an actively growing culture of bacteria diluted to a starting concentration of 2.5×10^5 CFU/ml in Mueller Hinton Broth (MHB). The growth chamber was maintained at 37°C during the incubation period. The absorbance was measured by a turbidometric method with vertical light photometry and a wide band filter (420–580 nm). MIC was defined as the lowest concentration resulting in no visible bacterial growth after 24 h."}, "[2]": {"tested_on": "E. coli HB101", "assay": "Antibacterial MIC assay (Bioscreen C growth monitoring)", "assay_type": "cell-based, Escherichia coli", "conditions": "50% MH", "description": "as §1, §2"}, "[3]": {"tested_on": "P. aeruginosa ATCC 27853", "assay_type": "cell-based, Pseudomonas aeruginosa", "conditions": "ATCC 27853, 24 h", "description": "as §1, §2"}, "[4]": {"tested_on": "C. glutamicum ATCC 13032", "assay_type": "cell-based, Corynebacterium glutamicum", "conditions": "ATCC 13032, 24 h", "description": "as §1, §2"}, "[5]": {"tested_on": "S. aureus ATCC 9144", "assay_type": "cell-based, Staphylococcus aureus", "conditions": "ATCC 9144, 24 h", "description": "as §1, §2"}, "[6]": {"tested_on": "S. cerevisiae spp.", "assay_type": "cell-based, Saccharomyces cerevisiae", "conditions": "48 h", "description": "as §1\n(§3) Fungal spores were dissolved in potato dextrose broth (Difco, Lawrence, KS, USA) and the cell concentration was determined and adjusted after counting in a Bürker chamber. Botrytis cinerea was filtered through a piece of cotton before counting. An aliquot of 50 µl of fungal spores (final concentration 2×10^5 spores/ml) were inoculated in 96-well Nunclon™ microtitre plates (Nagle Nunc Int. Roskilde, Denmark) along with 50 µl of synthetic peptide dissolved in Milli-Q water. Cultures were grown in a dark moist chamber without shaking at 20°C for S. cerevisiae and B. cinerea, and at 37°C for C. albicans. Growth inhibition was determined microscopically after 48 h of incubation. Inhibitory concentrations (IC50) was defined as the lowest concentration tested which yielded less than 50% visible growth compared to the growth control (fungi). Each peptide was tested in parallels in three individual runs for the antimicrobial assays."}, "[7]": {"tested_on": "C. albicans ATCC 10231", "assay_type": "cell-based, Candida albicans", "conditions": "ATCC 10231, 48 h", "description": "as §1, §3"}, "[8]": {"tested_on": "B. cinerea 101", "assay_type": "cell-based, Botrytis cinerea", "description": "as §1, §3"}, "[9]": {"tested_on": "E. coli HB101", "assay": "Bactericidal assay (killing kinetics, colony counts)", "assay_type": "cell-based, Escherichia coli", "conditions": "50% MHB, 1×10^6 CFU/ml, 37°C", "description": "During incubation, aliquots were removed at different time intervals, washed in buffered high salt solution (10 mM Na-phosphate, 400 mM NaCl, 10 mM MgCl2), diluted and plated on MH plates. The number of bacterial CFU was determined after approximately 48 h of incubation at 37°C."}, "[10]": {"tested_on": "E. coli HB101 constitutively expressing the luxCDABE operon", "assay": "Cell viability assay (luxCDABE luminescence)", "assay_type": "cell-based, Escherichia coli", "conditions": "at MIC, within the first 10 min after addition of peptide; 50% MH, OD600 0.2, 30°C", "description": "E.coli HB101 was transformed with the plasmid pCGLS-11 to enable constitutive bacterial luciferase expression from the luxCDABE operon. The resulting strain was used for cell viability assays as follows. An overnight culture in MH medium with ampicillin (100 µg/ml) was pelleted at 3000×g for 10 min and washed in MH medium before re-suspending the cells in 50% MH medium with a final OD600 of approximately 0.2. After 30 min of incubation at 30°C the cells were again adjusted to an OD600 of 0.2. An aliquot of 95 µl of bacterial solution was dispensed into each well of a black 96 well microtiter plate with transparent bottom (Falcon, Bredford, MA, USA). To achieve the indicated concentrations, a multi-channel pipette was used to add 5 µl of a two-fold dilution series of peptide solution in water to 8 wells simultaneously. The plate was loaded into a Perkin-Elmer Envision microtiter plate reader immediately after addition of the peptide (arasin 1(1–23), PR-39(1–26) or cecropin P1) and the measurement started 30 sec later because of handling events and 2 seconds of shaking inside the plate reader. Light production and growth (OD595) of the sensor bacteria was followed for 3 h under repeated shaking cycles before each measurement at 30°C."}, "[11]": {"tested_on": "E. coli HB101", "assay": "Membrane integrity assay II (propidium iodide, flow cytometry)", "assay_type": "cell-based, Escherichia coli", "conditions": "at MIC; PI flow cytometry", "description": "The effect of arasin 1(1–23) and cecropin P1 on membrane permeabilization was also studied by measuring the percentage of propidium iodide (PI) positive cells by flow cytometry. Samples of 1×10^6 cells/ml of E. coli HB101 were incubated in 50% MH with peptides at 37°C for different time span. After incubation, PI (Sigma Aldrich, Saint Louis, MO, USA) was added to the peptide-treated bacteria at a final concentration of 10 µg/ml. The cells were analyzed after 4 min of incubation with PI at 37°C in the flow cytometer as described."}, "[12]": {"tested_on": "Gram-negative bacteria", "conditions": "cited from earlier work", "description": "The high standard deviation values only observed at 20 µM (5×MIC) for both the viability assay (Fig. 3) and the membrane integrity assay (Fig. 6) indicate that activity around this concentration was very sensitive to individual assay conditions."}, "[13]": {"tested_on": "E. coli", "assay": "Antimicrobial activity at varied MH concentration", "assay_type": "cell-based, Escherichia coli", "conditions": "results not shown", "description": "In contrast to the results from E. coli and P. aeruginosa, the C-terminal part of arasin 1(1–23) alone arasin 1(7–23) and 1(9–23) inhibits C. glutamicum and all the fungi. At the same time this antibacterial and antifungal activity is strictly dependent on a fragment between aa 13–23. This indicates a somewhat different mode of action for Gram- negative and Gram-positive bacteria, respectively. Likewise the mode of action against fungi is likely different. It is tempting to speculate that the N-terminal 5–10 amino acids might be involved in arasin 1(1–23) transfer across the outer membrane while the C-terminal part might bind the molecular target which is responsible for growth inhibition at low concentrations. The antimicrobial assays were all performed in MH or potato dextrose medium at a final concentration of 50% strength for bacteria and fungi, respectively. […] This means that the peptides are very sensitive to medium composition, and perhaps also salinity and/or ionic strength. […] In some studies, the use of diluted or poor medium instead of rich medium in MIC and mode of action studies is claimed to increase the sensitivity of the assays, [47]. The reasons of the medium-dependence have not been further evaluated, and 50% MH was used as the standard medium for the mode of action studies."}, "[14]": {"tested_on": "human red blood cells (RBC)", "assay": "Hemolytic assay", "conditions": "read-out: EC50 (peptide concentration producing 50% hemolysis); 1% RBC suspension in PBS pH 7.4, 37°C, 1 h, absorbance at 550 nm; 100% hemolysis = 0.05% Triton X-100", "experimental": "The erythrocytes were pelleted by centrifugation at 450×g for 10 min and washed three times with phosphate-buffered saline (PBS; 320 mOsm, pH 7.4). The cell pellet was resuspended in 4 ml PBS and adjusted to a suspension giving 10% RBC. The test was performed in a 96 well U-shaped microtiter plate (Nunclon™ Surface, No. 163320; Nagle Nunc Int., Roskilde, Denmark), in which 50 µl peptide were incubated with 40 µl PBS and 10 µl RBC suspension. The synthetic peptides were tested at final concentrations ranging from 0.2 to 100 µM. After incubation in a shaker at 37°C for 1 h, the plate was centrifuged at 200×g for 5 min. The supernatants (60 µl) were carefully transferred to a new flat-bottomed polycarbonate microtiter plate (Nunc™ No. 269620, Nagle Nunc Int., Roskilde, Denmark), and absorbance was measured at 550 nm. Baseline hemolysis and 100% hemolysis were defined as the amount of hemoglobin released in the presence of PBS and 0.05% Triton X-100 (Sigma-Aldrich, Saint Louis, MO, USA), respectively. The EC50 value was taken as the mean concentration of peptide producing 50% hemolysis."}},
  "note": "Peptide text beside a SMILES is read from it.",
  "data": [
    {"molecule": "CC[C@H](C)[C@H](NC(=O)CNC(=O)[C@H](CCC(=O)O)NC(=O)[C@H](CO)NC(=O)[C@@H](NC(=O)[C@H](CCCNC(=N)N)NC(=O)[C@H](CCCCN)NC(=O)[C@H](CCCCN)NC(=O)[C@H](C)NC(=O)[C@H](CO)NC(=O)[C@H](CC(N)=O)NC(=O)[C@H](CCC(=O)O)NC(=O)[C@H](CC(C)C)NC(=O)[C@H](CCCCN)NC(=O)[C@H](CCCCN)NC(=O)[C@H](C)NC(=O)[C@@H](NC(=O)[C@H](CCCCN)NC(=O)[C@H](CO)NC(=O)[C@H](CC(C)C)NC(=O)[C@H](Cc1c[nH]c2ccccc12)NC(=O)[C@@H](N)CO)[C@@H](C)O)[C@@H](C)CC)C(=O)N[C@@H](C)C(=O)N[C@H](C(=O)N[C@@H](C)C(=O)N[C@H](C(=O)N[C@@H](CCC(N)=O)C(=O)NCC(=O)NCC(=O)N1CCC[C@H]1C(=O)N[C@@H](CCCNC(=N)N)C(=O)O)[C@@H](C)CC)[C@@H](C)CC", "note": "[Cecropin P1, reference compound] (H-SWLSKTAKKLENSAKKRISEGIAIAIQGGPR-OH; N-terminus and C-terminus assumed)", "values": [
      {"measurement": "MIC E. coli ATCC 25922", "setting": "[1]", "value": "0.8 to 1.6", "unit": "µM"},
      {"measurement": "MIC E. coli HB101", "setting": "[2]; lowest concentration with no visible bacterial growth after 24 h, 37°C, 2.5×10^5 cells/mL, representative of three individual experiments", "value": "0.8 to 1.6", "unit": "µM"},
      {"measurement": "MIC against E. coli HB101 (figure legend)", "setting": "[2]; value used for mode of action studies", "value": 1, "unit": "µM"},
      {"measurement": "MIC P. aeruginosa ATCC 27853", "setting": "[3]", "value": "0.8 to 1.6", "unit": "µM"},
      {"measurement": "MIC C. glutamicum ATCC 13032", "setting": "[4]", "value": "0.4 to 1.6", "unit": "µM"},
      {"measurement": "MIC S. aureus ATCC 9144", "setting": "[5]", "value": ">100", "unit": "µM"},
      {"measurement": "IC50", "setting": "[6]", "value": 6.3, "unit": "µM"},
      {"measurement": "IC50", "setting": "[7]", "value": 12.5, "unit": "µM"},
      {"measurement": "IC50 B. cinerea 101", "setting": "[8]; lowest concentration tested giving less than 50% visible growth vs growth control, potato dextrose medium, 20°C, 48 h, three individual experiments", "value": 50, "unit": "µM"},
      {"measurement": "time to kill all the bacteria", "setting": "[9]", "value": "approximately 15 min"},
      {"measurement": "reduction of light emitted", "setting": "[10]", "value": 60, "unit": "%"},
      {"measurement": "incubation time after which damage of the membrane was induced", "setting": "[11]", "value": 5, "unit": "min"},
      {"measurement": "MBC against Gram-negative bacteria", "setting": "[12]", "value": "1 to 2", "unit": "µM"}
    ]},
    {"molecule": "CC[C@H](C)[C@H](NC(=O)[C@H](CCCNC(=N)N)NC(=O)[C@@H]1CCCN1C(=O)[C@@H]1CCCN1C(=O)[C@H](CC(C)C)NC(=O)[C@H](CCCNC(=N)N)NC(=O)[C@@H]1CCCN1C(=O)[C@@H]1CCCN1C(=O)[C@H](Cc1ccccc1)NC(=O)[C@H](Cc1ccccc1)NC(=O)[C@@H]1CCCN1C(=O)[C@@H]1CCCN1C(=O)[C@@H]1CCCN1C(=O)[C@H](CCCNC(=N)N)NC(=O)[C@@H]1CCCN1C(=O)[C@H](CCCNC(=N)N)NC(=O)[C@@H]1CCCN1C(=O)[C@H](CC(C)C)NC(=O)[C@H](Cc1ccc(O)cc1)NC(=O)[C@@H]1CCCN1C(=O)[C@@H]1CCCN1C(=O)[C@H](CCCNC(=N)N)NC(=O)[C@@H]1CCCN1C(=O)[C@H](CCCNC(=N)N)NC(=O)[C@H](CCCNC(=N)N)NC(=O)[C@@H](N)CCCNC(=N)N)C(=O)O", "note": "[PR39(1–26), reference compound] (H-RRRPRPPYLPRPRPPPFFPPRLPPRI-OH; N-terminus and C-terminus assumed)", "values": [
      {"measurement": "MIC E. coli ATCC 25922", "setting": "[1]", "value": "0.8 to 1.6", "unit": "µM"},
      {"measurement": "MIC P. aeruginosa ATCC 27853", "setting": "[3]", "value": "3.1 to 6.3", "unit": "µM"},
      {"measurement": "MIC C. glutamicum ATCC 13032", "setting": "[4]", "value": 0.4, "unit": "µM"},
      {"measurement": "MIC S. aureus ATCC 9144", "setting": "[5]", "value": 50, "unit": "µM"},
      {"measurement": "IC50", "setting": "[6]", "value": 12.5, "unit": "µM"},
      {"measurement": "IC50", "setting": "[7]", "value": 12.5, "unit": "µM"},
      {"measurement": "IC50", "setting": "[8]; 101, 48 h", "value": 12.5, "unit": "µM"},
      {"measurement": "change of antimicrobial activity against E. coli by varying the MH concentration", "setting": "[13]", "value": "did not change the antimicrobial activity"}
    ]},
    {"molecule": "mellitin B: hemolytic control peptide purchased from Sigma-Aldrich", "values": [
      {"measurement": "EC50", "setting": "[14]", "value": 2, "unit": "µM"}
    ]}
  ]
}
